Tested on: Crude diglycosidase
Assay: Examination of pH in the conversion into isoflavone aglycons by diglycosidase using soybean materials
Type: biochemical, Penicillium multicolor IAM7153
Conditions: for existing ratio of aglycon of each isoflavone family / Decomposition efficiency of glycitin family in roasted soy flour / Decomposition efficiency of glycitin family in soymilk: 55° C.
Procedure: A substrate solution of 450 μL was prepared by suspending 50 mg of each soybean material (roasted soy flour (manufactured by Fuji Shokuryo K.K.), soymilk (manufactured by Gitoh Shokuhin K.K.), defatted soybean (manufactured by Fuji Seiyu K.K.), concentrated soybean protein (manufactured by Fuji Seiyu K.K.)), and adjusting the pH to 2 to 11 with hydrochloric acid or sodium hydroxide. Each enzyme solution of pH 2–11 wherein diglycosidase activity of crude diglycosidase was adjusted to 1.88 AU/mL was added thereto in an amount of 50 μL and the whole was reacted at 55° C. at the total volume of 500 μL. To the reaction mixture was added 700 μL of ethanol after 0, 1, 3, and 6 hours of the reaction. After stirring and ultrasonication, the mixture was subjected to centrifugal separation at 15,000 rpm and 4° C. for 10 minutes. The supernatant was filtered through a filter and the existence of isoflavone glycosides and aglycon isoflavones contained in the reaction mixture was detected by HLPC (Tables 15 to 26).

`COc1cc2c(=O)c(-c3ccc(O)cc3)coc2cc1O` [glycitein] was tested, and the “existing ratio of aglycon of each isoflavone family” value (concentrated soybean protein, pH 3.7 for 6 hours) was 78%, the “existing ratio of aglycon of each isoflavone family” value (defatted soybean, pH 3.4 for 6 hours) was 68% and the “Decomposition efficiency of glycitin family in concentrated soybean protein” value (pH1.6, heat treatment of enzyme: no, reaction time 0 h) was 11.3%. The “Decomposition efficiency of glycitin family in concentrated soybean protein” value (pH1.6, heat treatment of enzyme: no, reaction time 1 h) was 11.6%, the “Decomposition efficiency of glycitin family in concentrated soybean protein” value (pH1.6, heat treatment of enzyme: no, reaction time 3 h) was 11.7% and the “Decomposition efficiency of glycitin family in concentrated soybean protein” value (pH1.6, heat treatment of enzyme: no, reaction time 6 h) was 11.7%. For the same compound, the “Decomposition efficiency of glycitin family in concentrated soybean protein” value (pH1.6, heat treatment of enzyme: yes, reaction time 6 h) was 10.8%, the “Decomposition efficiency of glycitin family in roasted soy flour” value (pH2, heat treatment of enzyme no, reaction time 0 h) was 7.9 and the “Decomposition efficiency of glycitin family in roasted soy flour” value (pH2, heat treatment of enzyme no, reaction time 1 h) was 9.4. For the same compound, the “Decomposition efficiency of glycitin family in roasted soy flour” value (pH2, heat treatment of enzyme no, reaction time 3 h) was 9.5, the “Decomposition efficiency of glycitin family in roasted soy flour” value (pH2, heat treatment of enzyme no, reaction time 6 h) was 10.1 and the “Decomposition efficiency of glycitin family in roasted soy flour” value (pH2, heat treatment of enzyme yes, reaction time 6 h) was 10.4. The “Decomposition efficiency of glycitin family in soymilk” value (“Decomposition efficiency … in soymilk” below) (pH2.3, heat treatment of enzyme no, reaction time 0 h) was 7.2, the “Decomposition efficiency … in soymilk” value (pH2.3, heat treatment of enzyme no, reaction time 1 h) was 48.7 and the “Decomposition efficiency … in soymilk” value (pH2.3, heat treatment of enzyme no, reaction time 3 h) was 52.3. For the same compound, the “Decomposition efficiency … in soymilk” value (pH2.3, heat treatment of enzyme no, reaction time 6 h) was 53.5, the “Decomposition efficiency … in soymilk” value (pH2.3, heat treatment of enzyme yes, reaction time 6 h) was 6.9 and the “Decomposition efficiency of glycitin family in defatted soybean” value (pH2.6, heat treatment of enzyme: no, reaction time 0 h) was “not detected”. For the same compound, the “Decomposition efficiency of glycitin family in defatted soybean” value (pH2.6, heat treatment of enzyme: no, reaction time 1 h) was “not detected”, the “Decomposition efficiency of glycitin family in defatted soybean” value (pH2.6, heat treatment of enzyme: no, reaction time 3 h) was “not detected” and the “Decomposition efficiency of glycitin family in defatted soybean” value (pH2.6, heat treatment of enzyme: no, reaction time 6 h) was “not detected”. The “Decomposition efficiency of glycitin family in defatted soybean” value (pH2.6, heat treatment of enzyme: yes, reaction time 6 h) was “not detected”, the “Decomposition efficiency of glycitin family in concentrated soybean protein” value (pH2.7, heat treatment of enzyme: no, reaction time 0 h) was 11.3% and the “Decomposition efficiency of glycitin family in concentrated soybean protein” value (pH2.7, heat treatment of enzyme: no, reaction time 1 h) was 25.0%. The “Decomposition efficiency of glycitin family in concentrated soybean protein” value (pH2.7, heat treatment of enzyme: no, reaction time 3 h) was 25.7%, the “Decomposition efficiency of glycitin family in concentrated soybean protein” value (pH2.7, heat treatment of enzyme: no, reaction time 6 h) was 29.2% and the “Decomposition efficiency of glycitin family in concentrated soybean protein” value (pH2.7, heat treatment of enzyme: yes, reaction time 6 h) was 11.5%. For the same compound, the “Decomposition efficiency of glycitin family in roasted soy flour” value (pH3, heat treatment of enzyme no, reaction time 0 h) was 7.9, the “Decomposition efficiency of glycitin family in roasted soy flour” value (pH3, heat treatment of enzyme no, reaction time 1 h) was 61.3 and the “Decomposition efficiency of glycitin family in roasted soy flour” value (pH3, heat treatment of enzyme no, reaction time 3 h) was 69.2. For the same compound, the “Decomposition efficiency of glycitin family in roasted soy flour” value (pH3, heat treatment of enzyme no, reaction time 6 h) was 68.3, the “Decomposition efficiency of glycitin family in roasted soy flour” value (pH3, heat treatment of enzyme yes, reaction time 6 h) was 9.3 and the “Decomposition efficiency of glycitin family in defatted soybean” value (pH3.4, heat treatment of enzyme: no, reaction time 0 h) was “not detected”. For the same compound, the “Decomposition efficiency of glycitin family in defatted soybean” value (pH3.4, heat treatment of enzyme: no, reaction time 1 h) was “not detected”, the “Decomposition efficiency of glycitin family in defatted soybean” value (pH3.4, heat treatment of enzyme: no, reaction time 3 h) was “not detected” and the “Decomposition efficiency of glycitin family in defatted soybean” value (pH3.4, heat treatment of enzyme: no, reaction time 6 h) was “not detected”. The “Decomposition efficiency of glycitin family in defatted soybean” value (pH3.4, heat treatment of enzyme: yes, reaction time 6 h) was “not detected”, the “Decomposition efficiency … in soymilk” value (pH3.5, heat treatment of enzyme no, reaction time 0 h) was 7.2 and the “Decomposition efficiency … in soymilk” value (pH3.5, heat treatment of enzyme no, reaction time 1 h) was 78.1. For the same compound, the “Decomposition efficiency … in soymilk” value (pH3.5, heat treatment of enzyme no, reaction time 3 h) was 100.0, the “Decomposition efficiency … in soymilk” value (pH3.5, heat treatment of enzyme no, reaction time 6 h) was 100.0 and the “Decomposition efficiency … in soymilk” value (pH3.5, heat treatment of enzyme yes, reaction time 6 h) was 7.6. For the same compound, the “Decomposition efficiency of glycitin family in concentrated soybean protein” value (pH3.7, heat treatment of enzyme: no, reaction time 0 h) was 11.1%, the “Decomposition efficiency of glycitin family in concentrated soybean protein” value (pH3.7, heat treatment of enzyme: no, reaction time 1 h) was 66.7% and the “Decomposition efficiency of glycitin family in concentrated soybean protein” value (pH3.7, heat treatment of enzyme: no, reaction time 3 h) was 73.5%. The “Decomposition efficiency of glycitin family in concentrated soybean protein” value (pH3.7, heat treatment of enzyme: no, reaction time 6 h) was 77.5%, the “Decomposition efficiency of glycitin family in concentrated soybean protein” value (pH3.7, heat treatment of enzyme: yes, reaction time 6 h) was 11.3% and the “Decomposition efficiency of glycitin family in roasted soy flour” value (pH4, heat treatment of enzyme no, reaction time 0 h) was 8.6. The “Decomposition efficiency of glycitin family in roasted soy flour” value (pH4, heat treatment of enzyme no, reaction time 1 h) was 81.2, the “Decomposition efficiency of glycitin family in roasted soy flour” value (pH4, heat treatment of enzyme no, reaction time 3 h) was 91.8 and the “Decomposition efficiency of glycitin family in roasted soy flour” value (pH4, heat treatment of enzyme no, reaction time 6 h) was 100.0. For the same compound, the “Decomposition efficiency of glycitin family in roasted soy flour” value (pH4, heat treatment of enzyme yes, reaction time 6 h) was 9.0, the “Decomposition efficiency … in soymilk” value (pH4.8, heat treatment of enzyme no, reaction time 0 h) was 6.2 and the “Decomposition efficiency … in soymilk” value (pH4.8, heat treatment of enzyme no, reaction time 1 h) was 63.0. The “Decomposition efficiency … in soymilk” value (pH4.8, heat treatment of enzyme no, reaction time 3 h) was 78.9, the “Decomposition efficiency … in soymilk” value (pH4.8, heat treatment of enzyme no, reaction time 6 h) was 91.7 and the “Decomposition efficiency … in soymilk” value (pH4.8, heat treatment of enzyme yes, reaction time 6 h) was 6.5. For the same compound, the “Decomposition efficiency of glycitin family in defatted soybean” value (pH4.8, heat treatment of enzyme: no, reaction time 0 h) was 36.0%, the “Decomposition efficiency of glycitin family in defatted soybean” value (pH4.8, heat treatment of enzyme: no, reaction time 1 h) was 59.9% and the “Decomposition efficiency of glycitin family in defatted soybean” value (pH4.8, heat treatment of enzyme: no, reaction time 3 h) was 62.5%. For the same compound, the “Decomposition efficiency of glycitin family in defatted soybean” value (pH4.8, heat treatment of enzyme: no, reaction time 6 h) was 68.1% and the “Decomposition efficiency of glycitin family in defatted soybean” value (pH4.8, heat treatment of enzyme: yes, reaction time 6 h) was 43.8%.

From patent US7118895B2, “Process for producing aglycon by using diglycosidase and flavor-improved food containing the aglycon and converting agent to be used in the process” (Amano Enzyme Inc., priority 2000, dated 2006)
